Laboratory results taken from publication PMC13580833, “Investigation of Thiazolidine‐2,4‐Dione Derivatives as Acetylcholinesterase Inhibitors: Synthesis, In Vitro Biological Activities and In Silico Studies” (ChemistryOpen, 2025).

Key:
p‐Tau/Tau = test: Western blot of p‐Tau/Tau in Aβ‐exposed PC12 cells; assay type: cell-based, Rattus norvegicus; details: for Decrease of p‐Tau/Tau compared with the Aβ group: Aβ1‐42 100 μM
Experimental: (§1) PC12 cells were seeded in a 6‐well plate, treated CHT1 at concentrations of 5 and 8 μM for 24 hours, washed with cold PBS, and lysed with lysis buffer for 30 minutes on ice. After centrifugation at 12,000×g for 10 minutes at 4 °C, the lysates were transferred to new tubes. The Bradford assay was utilized to determine the protein concentration.[24] SDS–PAGE was used to separate the denatured proteins, which were subsequently transferred to PVDF membranes. The membranes were blocked with nonfat dry milk in PBS containing 0.1 % Tween‐20 (PBST) and then incubated overnight at 4 °C with primary antibodies against p‐Taul/Tau, HSP70, and β‐actin as a control. Subsequently, the membranes were exposed to a secondary antibody conjugated with horseradish peroxidase (HRP) for 2 hours at room temperature. Using the densitometric scanning technique in the ImageJ program, the density of the protein bands in the relative direction was determined.

PC12 cells [1] = test: MTT assay, Aβ1‐42‐induced toxicity in PC12 cells; assay type: cell-based, Rattus norvegicus; details: 0.31–20 μM CHT1, 12, 24 and 48 h
Experimental: (§2) Rattus norvegicus pheochromocytoma PC12 cells (Pastor Institute, Iran) were cultured in Dulbecco's modified Eagle's medium (DMEM) supplemented with 10 % fetal bovine serum (FBS) and 1 % penicillin/streptomycin (Gibco) at 37 °C with 5 % CO2. PC12 cells were treated with different concentrations of CHT1 for 12, 24, or 48 hours, and promising results were obtained.
(§3) In addition, the Aβ1‐42 peptides were diluted in water and preaggregated at 37 °C for 7 days before use. The cellular AD model was successfully constructed in vitro by incubating PC12 cells with 100 μM aggregated Aβ for 24 hours. DMSO (50 μL) and 0.5 mg/mL MTT (10 μL) stock solution were added to each well for 4 hours of incubation. After 30 minutes, the plates were shaken, and the optical density was measured at 570 nm using an ELISA reader (Biotech). The MTT assay used by Pirali et al.,[23] which underwent slight modifications, yielded promising results.

[2] = MTT assay, Aβ1‐42‐induced toxicity in PC12 cells; assay type: cell-based, Rattus norvegicus; details: rat; PC12 cells, CHT1 20 μM, after 48 h, MTT; read-out: Viability percentage of that of the control
Experimental: as §2, §3

BChE = BChE (Homo sapiens, UniProt P06276); test: BChE inhibition assay (Ellman's method); assay type: biochemical
Chain of BChE (P06276 29-602, species assumed): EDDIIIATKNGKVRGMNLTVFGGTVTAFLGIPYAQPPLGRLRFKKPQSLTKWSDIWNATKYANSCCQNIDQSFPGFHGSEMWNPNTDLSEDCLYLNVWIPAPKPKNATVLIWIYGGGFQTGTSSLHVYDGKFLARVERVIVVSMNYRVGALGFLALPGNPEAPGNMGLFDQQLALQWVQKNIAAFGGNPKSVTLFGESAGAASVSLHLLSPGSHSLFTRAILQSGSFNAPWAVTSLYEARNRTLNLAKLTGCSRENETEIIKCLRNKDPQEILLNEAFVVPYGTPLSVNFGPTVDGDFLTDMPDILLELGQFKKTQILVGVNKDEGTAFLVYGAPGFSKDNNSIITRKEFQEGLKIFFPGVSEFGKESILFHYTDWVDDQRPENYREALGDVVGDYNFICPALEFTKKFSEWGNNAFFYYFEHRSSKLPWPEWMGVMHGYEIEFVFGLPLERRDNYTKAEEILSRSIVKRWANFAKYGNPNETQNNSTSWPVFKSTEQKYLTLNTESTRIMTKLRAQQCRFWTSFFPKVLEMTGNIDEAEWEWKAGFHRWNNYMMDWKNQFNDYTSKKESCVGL
Experimental: The ChEs inhibitory activities based on Ellman's method were assessed using previously described methods.[[15b]] Acetylcholinesterase (electric eel, […]) inhibition assays were conducted with ATCI (10 mM) and DTNB (10 mM). The experiment required adding 50 μL of AChE in Tris‐HCl buffer (pH 8.0), 100 μL substrate, and 50 μL of the sample dissolved in DMSO (10 % in Tris‐HCl buffer) to the wells. For BChE inhibition, mixtures contained 30 μL of 10 mM DTNB, 5 μL of BChE, 30 μL of 10 mM BTChCl (10 mM), and 10 μL of samples.
All samples were dissolved in 10 % DMSO, and the experiment was performed in triplicate.

PC12 cells [3] = test: Growth of PC12 cells in response to treatments (Figure 5); assay type: cell-based, Rattus norvegicus; details: CHT1 pretreatment 5 and 8 μM in the presence of Aβ, 24 hours
HSP70 = test: Western blot of HSP70 in Aβ‐exposed PC12 cells; assay type: cell-based, Rattus norvegicus; details: for Decrease of HSP70 expression compared with the Aβ group: Aβ1‐42 100 μM
Experimental: as §1

[4] = Ferric reducing/antioxidant power (FRAP) assay; details: ferrous ion equivalents per gram of test compound; triplicate
Experimental: The ferric reducing/antioxidant power (FRAP) assay was performed based on a previous study.[[15a]] […] A standard curve was drawn to analyze different concentrations of ferrous sulfate (0.1–1 mM). The analysis was conducted in triplicates and the value of antioxidant activity results were expressed in mmol ferrous ion equivalents per gram of test compounds (mmol Fe^2+/g).

[5] = Western blotting, CHT1 5 and 8 μM
[6] = PC12 cells, Aβ1‐42 100 μM alone

Which results are given for `COc1ccc(C=C2SC(O)=NC2=O)cc1` [CHT1, 5‐(4‐Methoxybenzylidene)thiazolidine‐2,4‐dione]?
Decrease of p‐Tau/Tau compared with the Aβ group (p‐Tau/Tau; PC12 cells, 5 μM): 2.26 fold; Decrease of p‐Tau/Tau compared with the Aβ group (p‐Tau/Tau; PC12 cells, 8 μM): 2.01 fold; p‐Tau expression level (p‐Tau/Tau; [5]): downregulated; Acute toxicity in PC12 cells (PC12 cells [1]): acute toxicity was not observed; Effect of pretreatment on Aβ1‐42‐induced cell death (PC12 cells [1]; PC12 cells, Aβ1‐42 100 μM): significant reduction in Aβ1‐42‐induced cell death in a dose‐dependent manner; viability at 48 h, 20 μM [2]: 66.5%; IC50 (BChE): 69.1 nM; Density of PC12 cells compared with Aβ (100 μM) (PC12 cells [3]): increased the density of PC12 cells; Decrease of HSP70 expression compared with the Aβ group (HSP70; PC12 cells, 5 μM): 2.1 fold; Decrease of HSP70 expression compared with the Aβ group (HSP70; PC12 cells, 8 μM): 2.26 fold; HSP70 expression level (HSP70; [5]): downregulated; Antioxidant capacity (FRAP) [4]: 0.78 mmol Fe^2+/g

Which IC50 (BChE) does the source give for `O=C1N=C(O)SC1=Cc1ccc(Cl)cc1` [CHT2, 5‐(4‐Chlorobenzylidene)thiazolidine‐2,4‐dione] here?
The IC50 was 125 nM.

Which IC50 (BChE) does the source give for `O=C1NC(=O)C(=Cc2cccc(O)c2)S1` [CHT3, 5‐(3‐Hydroxybenzylidene)thiazolidine‐2,4‐dione] here?
The IC50 was 81.9 nM.

And the “Antioxidant capacity (FRAP)” value [4]?
Its value is 0.41 mmol Fe^2+/g.

For `O=C1NC(=O)C(=Cc2ccccc2O)S1` [CHT4, 5‐(2‐Hydroxybenzylidene)thiazolidine‐2,4‐dione], which IC50 (BChE) is on record?
Its IC50 is 102 nM.

What about the “Antioxidant capacity (FRAP)” value [4] of the same compound?
Its value is 0.45 mmol Fe^2+/g.

With `O=C1NC(=O)C(=Cc2cccc3ccccc23)S1` [CHT5, 5‐((Naphthalene‐1‐yl)methylene)thiazolidine‐2,4‐dione] as the compound, how does the IC50 (BChE) read?
Its IC50 is 141 nM.

And the “Antioxidant capacity (FRAP)” value [4]?
The value was 0.26 mmol Fe^2+/g.

Which “Decrease of HSP70 expression compared with the Aβ group” value (HSP70; PC12 cells, donepezil 75 μM (positive control)) does the source give for `COc1cc2c(cc1OC)C(=O)C(CC1CCN(Cc3ccccc3)CC1)C2` (centres unmarked) [Donepezil, donepezil, reference compound] here?
Its value is 1.92 fold.

With `O=C1O[C@H]([C@@H](O)CO)C(O)=C1O` [ascorbic acid, reference compound] as the compound, how does the “Antioxidant capacity (FRAP)” value [4] read?
The value was 1.15 mmol Fe^2+/g.

For “amyloid beta 1–42 [Aβ1‐42, reference compound]”, which “p‐Tau/Tau ratio greater than in the control group” value (p‐Tau/Tau; [6]) is on record?
The value was 4.96 fold.

What about the “HSP70 level greater than in the control group” value (HSP70; [6]) of the same compound?
The value was 3.35 fold.
